Laboratory results: patent publication US10092657B2, “Opsonized β-glucan preparations and methods” (Biothera, Inc., priority 2011, dated 2018)

Columns and labels:
[1] = test system: T-cells; test: Binding of PGG β-glucan to T-cells within PBMC (BfD IV staining, flow cytometry); type: cell-based, human; conditions: 100, 200, 400 μg/mL; 10% autologous serum; 37° C.; two hours
Protocol: Enriched neutrophils or PBMC were resuspended at 1×10^6 cells/mL in RPMI 1640 supplemented with 10% serum. PGG β-glucan at hexose concentrations 100 μg/mL, 200 μg/mL, or 400 μg/mL were added to neutrophils or PBMC and incubated in a 37° C., 5% CO2 humidified incubator for two hours. After incubation, cells were washed twice with FACS buffer (HBSS supplemented with 1% FBS and 0.1% sodium azide) to remove any unbound β-glucan, and subsequently treated with Fc block (Miltenyi Biotec, Auburn, Calif.). After the Fc block step, cells were stained with the BfD IV Ab for 30 minutes at 4° C. and washed twice with cold FACS buffer. Cells were then incubated with FITC-conjugated F(ab′)2 goat anti-mouse IgM for 30 minutes at 4° C. and washed once with cold FACS buffer before fixing with 1% paraformaldehyde.
In early optimization experiments, neutrophils, monocytes, and T cells were identified by staining with fluorescently labeled anti-CD 15, anti-CD 14, or anti-CD3 Abs, respectively. […] Surface binding of DTAF-conjugated β-glucan was subsequently assessed by flow cytometric analysis. To determine receptor-specific binding, binding of 25 μg/mL of DTAF-labeled PGG β-glucan was assessed by incubating the labeled β-glucan with the cells in the presence of 10 mg/mL of unlabeled PGG β-glucan or dextran.

[2] = test system: human monocytes; test: Binding studies on the role of complement proteins in serum, monocytes; type: cell-based
Protocol: Heat-inactivated (HI) serum was prepared by incubating serum in a 56° C. water bath for 30 minutes. […] Treatment of serum with methylamine (MA) was done by incubating serum with 0.67% of methylamine for 2.5 hours at 37° C., followed by three washes with DPBS using Amicon centrifugal filter unit with a 3K MW cut-off (Millipore, Billerica, Mass.). DPBS-treated serum was prepared in the same manner and used as control serum for MA-treated serum. For blocking of factor D in the serum, 166-32 at concentration 20 μg/mL was incubated with serum on ice for 30 minutes, and then used for binding studies. For binding experiments in the presence of EGTA or MgEGTA, serum was incubated with 10 mM EGTA with or without 10 mM MgCl2 for 10 minutes at room temperature. The untreated and EGTA/MgEGTA-treated serum was then used to pre-treat PGG and perform binding studies as described earlier.

[3] = test system: human monocytes; test: Binding of PGG β-glucan after serum pre-treatment, monocytes; type: cell-based; conditions: 100 μg/mL; 10% HI serum; two hours at 37° C.
Protocol: PGG β-glucan at concentration 60-80 mg/mL was incubated with human serum at 1:10 volume ratio for 30 minutes in a 37° C. water bath. The serum-pretreated PGG β-glucan was added to neutrophils at 200 μg/mL or to PBMC at 100 μg/mL resuspended in RPM1 containing either 10% regular autologous serum or 10% HI serum at indicated time and temperature of incubation. Binding was then determined as described previously.
To determine the role of complement proteins in binding, experiments were performed as described above except for using serum containing 10% HI, compstatin-treated or methylamine (MA)-treated, EGTA- or EGTA+MgCl2 (MgEGTA)-treated, or factor D-blocked serum. Heat-inactivated (HI) serum was prepared by incubating serum in a 56° C. water bath for 30 minutes. […] Treatment of serum with methylamine (MA) was done by incubating serum with 0.67% of methylamine for 2.5 hours at 37° C., followed by three washes with DPBS using Amicon centrifugal filter unit with a 3K MW cut-off (Millipore, Billerica, Mass.). DPBS-treated serum was prepared in the same manner and used as control serum for MA-treated serum. For blocking of factor D in the serum, 166-32 at concentration 20 μg/mL was incubated with serum on ice for 30 minutes, and then used for binding studies. […]

[4] = test system: human neutrophils; test: Binding of PGG β-glucan to human neutrophils (BfD IV staining, flow cytometry); type: cell-based
Protocol: Enriched neutrophils or PBMC were resuspended at 1×10^6 cells/mL in RPMI 1640 supplemented with 10% serum. PGG β-glucan at hexose concentrations 100 μg/mL, 200 μg/mL, or 400 μg/mL were added to neutrophils or PBMC and incubated in a 37° C., 5% CO2 humidified incubator for two hours. After incubation, cells were washed twice with FACS buffer (HBSS supplemented with 1% FBS and 0.1% sodium azide) to remove any unbound β-glucan, and subsequently treated with Fc block (Miltenyi Biotec, Auburn, Calif.). […] Cells were then incubated with FITC-conjugated F(ab′)2 goat anti-mouse IgM for 30 minutes at 4° C. and washed once with cold FACS buffer before fixing with 1% paraformaldehyde. In early optimization experiments, neutrophils, monocytes, and T cells were identified by staining with fluorescently labeled anti-CD 15, anti-CD 14, or anti-CD3 Abs, respectively. Events were collected on a LSRII flow cytometer (BD Biosciences, San Jose, Calif.) and analysis was performed using FLOWJO (Tree Star, Ashland, Oreg.). […] Surface binding of DTAF-conjugated β-glucan was subsequently assessed by flow cytometric analysis. […] The experiments to determine binding of PGG β-glucan at 200 μg/mL to neutrophils or at 100 μg/mL to PBMC were performed as described above with the following changes. For determining serum dependency, PGG β-glucan was incubated with neutrophils or PBMC resuspended in RPMI 1640 containing 2%, 5%, or 10% autologous serum at 37° C. for two hours. For time-course experiments, PGG β-glucan at indicated concentrations was incubated with cells resuspended in 10% autologous serum at 37° C. for 10 minutes, 20 minutes, 60 minutes, or 120 minutes. For temperature dependency experiments, PGG β-glucan at indicated concentrations was incubated with cells resuspended in 10% autologous serum for two hours at 4° C., room temperature, or 37° C.

[5] = 2%, 5% or 10% autologous serum, 37° C., two hours

- Binding in the presence of heat inactivated (HI) serum ([2]; 10% HI serum vs regular serum, 100 μg/mL): abrogated
- Average percentage of binding inhibition in HI serum ([2]; based on MFI, five donors): 90%
- Range of percentage of binding inhibition in HI serum ([2]; based on MFI, five donors): 81-100%
Substance: β(1,6)-[poly-1,3)-D-glucopyranosyl]-poly-β(1,3)-D-glucopyranose [PGG β-glucan]
- Binding (MFI and percentage of BfD IV positive cells) [1]: not to T-cells
- Extent of rescued binding to cells in HI serum (MFI, percentage of BfD IV positive cells) [3]: minimal
- Minimum concentration of β-glucan detected on the cells by the BfD IV detection system [4]: 100 µg/mL
- Incubation time of maximal binding ([4]; 200 μg/mL, 10% serum, 37° C.): 30 to 60 min
- Percentage of serum at which maximal binding occurred [4, 5]: 10%
- Percentage of serum at which minimum binding occurred [4, 5]: 2%
- Concentration at which percentage of BfD IV positive cells reached a plateau ([4]; 10% autologous serum, 37° C., two hours): 200 µg/mL
- Binding (MFI and percentage of BfD IV positive cells) ([4]; 100, 200, 400 μg/mL, 10% autologous serum, 37° C., two hours): bound to both neutrophils and monocytes
- Incubation temperature of maximal binding ([4]; two hours at 4° C., room temperature or 37° C., 10% serum): 37 °C
